In patent US10968210B2, “Diamino-alkylamino-linked arylsulfonamide compounds with selective activity in voltage-gated sodium channels” (Merck Sharp & Dohme Corp., priority 2016, dated 2021):

Key:
[1] = molecular target: T1, human Nav 1.7 channels stably expressed in HEK 293 cells (Homo sapiens, UniProt Q15858); assay: IonWorks Quattro automated patch-clamp, inactivated state block of Nav 1.7; format: cell-based; settings: double-pulse protocol, HEK 293 cells held at -100 mV, read-out: potency for the Nav 1.7 sodium ion channel (IC50, IonWorks)
T1 construct: expressed in transfected cells; host or cells: HEK 293
Method: (§1) IonWorks® Experimental Procedure
(§2) Compounds were tested on human Nav 1.7 and Nav 1.5 channels stably expressed in HEK 293 cells. Sodium current measurements on IonWorks Quattro: An automated patch-clamp assay on the IonWorks Quattro platform (Molecular Devices) was used to measure state-dependent inhibition of human Nav 1.7 and Nav 1.5 channels. Cells were sealed on a planar substrate using the Population Patch Plate (PPC) technology. Electrical access was obtained using both nystatin and amphotericin. A double-pulse protocol was used for the determination of IC50 values for inactivated state block. Nav 1.7 and Nav 1.5 expressing cells were voltage clamped at −100 mV and −110 mV, respectively. A depolarizing prepulse to −10 mV (Nav 1.7) or −30 mV (Nav 1.5) for 1000 ms followed by a 10 ms repolarization to ˜100 mV (Nav1.7) or −110 mV (Nav 1.5) was given to generate fractional channel inactivation of ˜50%, followed by a 10 ms test pulse to −10 mV (Nav 1.7) or −30 mV (Nav 1.5) to measure peak current in control conditions and after compound addition. The following recording solutions were used (mM). External: 150 NaCl, 2 CaCl2, 5 KCl, 1 Mg Cl2, 10 HEPES, 12 Dextrose; internal: 120 CsF, 30 CsCl, 10 EGTA, 5 HEPES, 5 NaF, 2 MgCl2.
(§3) For all electrophysiology experiments, offline analysis was used to determine percent inhibition as a function of drug concentration. IC50 values were determined by fitting to the Hill equation.
(§4) The various compounds in Examples 1 through 4 and Tables 1 through 3 exemplified above were assayed for activity and selectivity using the foregoing IonWorks® technique. The results are reported in the following paragraph in a format expressing the identification of the compound with reference Example and compound (e.g. Ex 1-9 is Example 1, compound 9) followed by the observed potency in nM and the ratio of Nav1.7 potency: Nav1.5 potency as described here. Thus, Ex1-9: 1.7=65/ratio=641 identifies compound Example 1, compound 9 as having 65 nM potency for the Nav 1.7 sodium ion channel (as measured by IonWorks®) and a ratio of 641 Nav 1.7: Nav 1.5 potency, determined by IonWorks® measurement.

[2] = molecular target: T2, human Nav 1.5 channels stably expressed in HEK 293 cells (Homo sapiens, UniProt Q14524); assay: IonWorks Quattro automated patch-clamp, inactivated state block of Nav 1.5 (reported as ratio to Nav 1.7 potency); format: cell-based; settings: selectivity for Nav 1.7 over Nav 1.5, both by IonWorks
T2 construct: expressed in transfected cells; host or cells: HEK 293
Method: as §1, §2, §3, §4

T1 sequence (Q15858 whole entry): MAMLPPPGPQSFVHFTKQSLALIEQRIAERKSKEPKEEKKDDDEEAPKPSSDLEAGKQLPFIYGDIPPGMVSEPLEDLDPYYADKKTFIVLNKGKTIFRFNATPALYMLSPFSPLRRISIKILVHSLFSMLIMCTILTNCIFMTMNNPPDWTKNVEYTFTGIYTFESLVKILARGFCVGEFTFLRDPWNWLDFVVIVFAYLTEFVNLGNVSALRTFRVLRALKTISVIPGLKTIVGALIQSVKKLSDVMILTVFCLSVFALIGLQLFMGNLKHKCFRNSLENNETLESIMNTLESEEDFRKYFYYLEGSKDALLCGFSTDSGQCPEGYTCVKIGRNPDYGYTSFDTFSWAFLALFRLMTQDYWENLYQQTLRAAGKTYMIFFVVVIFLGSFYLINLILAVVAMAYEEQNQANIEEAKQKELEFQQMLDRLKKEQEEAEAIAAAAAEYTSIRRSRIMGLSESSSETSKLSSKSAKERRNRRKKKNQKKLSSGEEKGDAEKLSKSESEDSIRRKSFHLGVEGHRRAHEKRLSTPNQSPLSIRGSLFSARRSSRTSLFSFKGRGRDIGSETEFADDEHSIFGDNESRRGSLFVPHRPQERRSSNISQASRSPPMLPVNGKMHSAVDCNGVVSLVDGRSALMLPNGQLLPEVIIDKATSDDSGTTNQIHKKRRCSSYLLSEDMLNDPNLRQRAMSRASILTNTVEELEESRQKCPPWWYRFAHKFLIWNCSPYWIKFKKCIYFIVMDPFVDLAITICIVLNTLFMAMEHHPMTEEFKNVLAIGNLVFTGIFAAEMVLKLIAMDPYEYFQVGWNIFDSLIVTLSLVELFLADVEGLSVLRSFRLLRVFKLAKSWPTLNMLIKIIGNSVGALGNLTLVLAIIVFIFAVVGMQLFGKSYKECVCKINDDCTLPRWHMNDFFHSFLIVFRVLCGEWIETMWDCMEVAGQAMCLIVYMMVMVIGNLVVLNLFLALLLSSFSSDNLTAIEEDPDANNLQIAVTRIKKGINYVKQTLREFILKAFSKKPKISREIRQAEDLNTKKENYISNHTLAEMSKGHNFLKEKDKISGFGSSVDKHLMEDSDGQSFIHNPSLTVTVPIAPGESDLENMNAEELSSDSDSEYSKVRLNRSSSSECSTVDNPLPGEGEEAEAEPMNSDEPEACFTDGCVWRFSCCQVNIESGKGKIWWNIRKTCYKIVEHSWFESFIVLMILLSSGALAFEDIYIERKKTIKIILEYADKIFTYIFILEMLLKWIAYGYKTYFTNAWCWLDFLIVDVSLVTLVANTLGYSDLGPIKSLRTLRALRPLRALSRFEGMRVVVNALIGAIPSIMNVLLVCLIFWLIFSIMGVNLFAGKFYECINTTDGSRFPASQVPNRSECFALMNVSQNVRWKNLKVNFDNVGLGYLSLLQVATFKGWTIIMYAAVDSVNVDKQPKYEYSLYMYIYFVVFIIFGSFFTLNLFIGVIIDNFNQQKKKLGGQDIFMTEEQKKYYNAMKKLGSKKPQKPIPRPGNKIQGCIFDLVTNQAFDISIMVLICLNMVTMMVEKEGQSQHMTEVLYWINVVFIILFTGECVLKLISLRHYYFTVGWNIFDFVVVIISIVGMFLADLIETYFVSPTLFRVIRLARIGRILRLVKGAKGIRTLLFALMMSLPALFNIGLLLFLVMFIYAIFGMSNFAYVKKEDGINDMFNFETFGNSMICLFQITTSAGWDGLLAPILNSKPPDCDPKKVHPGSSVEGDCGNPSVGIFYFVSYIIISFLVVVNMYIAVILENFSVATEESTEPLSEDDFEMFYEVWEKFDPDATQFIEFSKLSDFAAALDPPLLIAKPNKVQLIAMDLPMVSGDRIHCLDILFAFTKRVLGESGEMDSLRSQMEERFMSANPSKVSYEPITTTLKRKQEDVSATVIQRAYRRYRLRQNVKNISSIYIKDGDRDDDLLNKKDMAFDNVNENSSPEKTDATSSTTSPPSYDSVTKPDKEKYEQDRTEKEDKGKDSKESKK
T2 sequence (Q14524 whole entry): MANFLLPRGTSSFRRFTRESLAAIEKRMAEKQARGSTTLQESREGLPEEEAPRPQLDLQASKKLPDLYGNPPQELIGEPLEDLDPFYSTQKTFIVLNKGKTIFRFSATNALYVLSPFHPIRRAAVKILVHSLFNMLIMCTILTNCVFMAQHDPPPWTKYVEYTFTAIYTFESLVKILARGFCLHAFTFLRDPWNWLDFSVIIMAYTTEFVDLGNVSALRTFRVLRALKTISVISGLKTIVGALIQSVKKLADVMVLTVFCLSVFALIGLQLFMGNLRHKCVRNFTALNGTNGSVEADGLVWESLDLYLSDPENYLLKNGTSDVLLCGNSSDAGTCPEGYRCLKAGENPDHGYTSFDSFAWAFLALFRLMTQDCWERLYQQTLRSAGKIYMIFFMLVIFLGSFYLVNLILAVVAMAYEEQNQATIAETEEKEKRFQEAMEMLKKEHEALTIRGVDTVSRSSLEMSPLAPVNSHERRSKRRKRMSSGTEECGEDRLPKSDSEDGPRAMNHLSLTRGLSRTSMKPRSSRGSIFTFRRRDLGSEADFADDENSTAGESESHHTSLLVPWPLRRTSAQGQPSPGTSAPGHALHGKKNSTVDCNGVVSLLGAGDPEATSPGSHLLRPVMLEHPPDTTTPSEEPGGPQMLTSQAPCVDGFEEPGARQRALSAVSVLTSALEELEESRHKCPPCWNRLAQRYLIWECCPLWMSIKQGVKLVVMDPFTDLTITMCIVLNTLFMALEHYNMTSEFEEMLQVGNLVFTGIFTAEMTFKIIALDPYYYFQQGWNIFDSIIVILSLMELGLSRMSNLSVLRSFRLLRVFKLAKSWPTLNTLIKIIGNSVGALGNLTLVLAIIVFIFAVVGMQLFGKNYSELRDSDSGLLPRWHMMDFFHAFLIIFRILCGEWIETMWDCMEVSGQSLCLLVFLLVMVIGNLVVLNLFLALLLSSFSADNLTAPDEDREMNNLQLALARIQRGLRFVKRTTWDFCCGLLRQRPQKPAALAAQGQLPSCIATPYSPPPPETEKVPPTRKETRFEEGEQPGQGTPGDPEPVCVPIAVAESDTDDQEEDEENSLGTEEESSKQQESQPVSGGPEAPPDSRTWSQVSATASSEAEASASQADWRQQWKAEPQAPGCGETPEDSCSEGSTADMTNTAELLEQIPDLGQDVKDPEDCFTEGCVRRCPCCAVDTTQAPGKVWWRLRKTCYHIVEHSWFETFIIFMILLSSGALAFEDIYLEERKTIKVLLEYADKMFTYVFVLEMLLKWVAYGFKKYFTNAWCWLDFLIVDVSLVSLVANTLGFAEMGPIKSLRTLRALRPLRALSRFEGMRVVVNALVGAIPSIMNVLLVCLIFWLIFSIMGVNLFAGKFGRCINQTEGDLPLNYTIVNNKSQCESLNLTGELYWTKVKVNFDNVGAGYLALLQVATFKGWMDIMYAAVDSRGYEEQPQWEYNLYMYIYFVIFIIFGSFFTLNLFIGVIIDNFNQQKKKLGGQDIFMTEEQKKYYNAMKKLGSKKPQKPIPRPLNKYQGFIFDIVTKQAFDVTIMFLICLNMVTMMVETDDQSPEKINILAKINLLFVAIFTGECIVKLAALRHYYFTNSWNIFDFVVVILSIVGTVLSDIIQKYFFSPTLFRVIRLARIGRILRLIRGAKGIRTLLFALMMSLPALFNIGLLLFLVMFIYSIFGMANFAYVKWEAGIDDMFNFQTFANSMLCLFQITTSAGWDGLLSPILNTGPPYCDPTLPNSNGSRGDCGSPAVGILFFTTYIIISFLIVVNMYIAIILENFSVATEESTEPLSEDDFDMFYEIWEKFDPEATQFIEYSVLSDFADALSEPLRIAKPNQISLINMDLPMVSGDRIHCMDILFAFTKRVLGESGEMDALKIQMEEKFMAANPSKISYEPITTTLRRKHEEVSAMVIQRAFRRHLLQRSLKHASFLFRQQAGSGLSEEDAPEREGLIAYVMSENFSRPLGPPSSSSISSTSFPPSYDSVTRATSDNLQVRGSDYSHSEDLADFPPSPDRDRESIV

| SMILES | IC50 [1] | ratio of Nav 1.7 : Nav 1.5 potency (IonWorks) [2] |
| --- | --- | --- |
| O=S(=O)(Nc1nccs1)c1cc(Cl)c(NCCCCNC[C@@H]2C[C@@H](c3ccccc3)CN2)cc1F [Ex 8-4, 5-chloro-2-fluoro-4-{[4-({[(2S,4S)-4-phenyl-pyrrolidin-2-yl]methyl}-amino)butyl]amino}-N-1,3-thiazol-2-yl-benzenesulfonamide] | 32 nM | > 1030 |
| O=S(=O)(Nc1nccs1)c1cc(Cl)c(NCC2CCCC(NCC3CCCN3)C2)cc1F (single isomer, unassigned) [Ex 6-7 Enantiomer B, 5-chloro-2-fluoro-4-((((1S,3R or 1R,3S)-3-(((S)-pyrrolidin-2-ylmethyl)amino)cyclohexyl)methyl)amino)-N-(thiazol-2-yl)benzenesulfonamide] | 35 nM | > 940 |
| O=S(=O)(Nc1nccs1)c1cc(Cl)c(NCCCCNC2C[C@@H]3C[C@H]2CN3)cc1F (stereo partly drawn) [Ex 1-24, 4-({4-[(1S,4S)-2-azabicyclo[2.2.1]hept-5-ylamino]butyl}amino)-5-chloro-2-fluoro-N-1,3-thiazol-2-ylbenzenesulfonamide] | 17 nM | > 1940 |
| CN[C@@H]1CCN(CCCCNc2cc(F)c(S(=O)(=O)Nc3ncns3)cc2Cl)C1 [Ex 16-03, 5-chloro-2-fluoro-4-({4-[(3R)-3-(methylamino)pyrrolidin-1-yl]-butyl}-amino)-N-1,2,4-thiadiazol-5-ylbenzene-sulfonamide] | 14 nM | 1930 |
| NCC1(c2ccccc2)CCN(CCCCNc2cc(F)c(S(=O)(=O)Nc3nccs3)cc2Cl)C1 (stereo not drawn) [Ex 1-50, 4-({4-[3-(aminomethyl)-3-phenylpyrrolidin-1-yl]butyl}amino)-5-chloro-2-fluoro-N-1,3-thiazol-2-ylbenzenesulfonamide] | 46 nM | > 717 |
| N[C@H]1[C@@H]2CC[C@H]1N(CCCCNc1cc(F)c(S(=O)(=O)Nc3nccs3)cc1Cl)C2 [Ex 1-20, 4-({4-[(1R,4R,7S)-7-amino-2-azabicyclo[2.2.1]hept-2-yl]butyl}amino)-5-chloro-2-fluoro-N-1,3-thiazol-2-ylbenzenesulfonamide] | 56 nM | > 590 |
| O=S(=O)(Nc1nccs1)c1cc(Cl)c(NCCCCNCC2CCC(c3ccccc3)CN2)cc1F (stereo not drawn) [Ex 8-14, 5-chloro-2-fluoro-4-[(4-{[(5-phenyl-piperidin-2-yl)-methyl]amino}butyl)amino]-N-1,3-thiazol-2-yl-benzenesulfonamide] | 14 nM | 2290 |
| O=S(=O)(Nc1nccs1)c1cc(Cl)c(NCCCCNC[C@@H]2C[C@H](Oc3ccccc3)CN2)cc1F [Ex 8-5, 5-chloro-2-fluoro-4-{[4-({[(2S,4S)-4-phenoxypyrrolidin-2-yl]methyl}amino)butyl]-amino}-N-1,3-thiazol-2-yl-benzenesulfonamide] | 40 nM | 425 |
| NC[C@@H]1CCN1CCCCNc1cc(F)c(S(=O)(=O)Nc2ncc(F)s2)cc1Cl [Ex 16-11, 4-({4-[(2S)-2-(aminomethyl)azetidin-1-yl]-butyl}amino)-5-chloro-2-fluoro-N-(5-fluoro-1,3-thiazol-2-yl)-benzene-sulfonamide] | 15 nM | > 1530 |
| N#Cc1cc(S(=O)(=O)Nc2nccs2)c(F)cc1NCCCCN[C@@H]1CCNC1 [Ex 16-39, 5-cyano-2-fluoro-4-({4-[(3R)-pyrrolidin-3-ylamino]-butyl}amino)-N-1,3-thiazol-2-yl-benzenesulfonamide] | 36 nM | > 917 |
| O=S(=O)(Nc1nccs1)c1cc(Cl)c(NCCCCN[C@@H]2[C@H]3CC[C@@H]2NC3)cc1F [Ex 1-25, 4-({4-[(1S,4S,7R)-2-azabicyclo[2.2.1]hept-7-ylamino]butyl}amino)-5-chloro-2-fluoro-N-1,3-thiazol-2-ylbenzenesulfonamide] | 21 nM | > 1590 |
| NCC1(c2ccccc2)CCN(CCCCNc2cc(F)c(S(=O)(=O)Nc3nccs3)cc2Cl)CC1 [Ex 1-45, 4-({4-[4-(aminomethyl)-4-phenylpiperidin-1-yl]butyl}amino)-5-chloro-2-fluoro-N-1,3-thiazol-2-ylbenzenesulfonamide] | 110 nM | – |
| NC1CN(CCCCNc2cc(F)c(S(=O)(=O)Nc3nccs3)cc2Cl)C1 [Ex 1-44, 4-{[4-(3-aminoazetidin-1-yl)butyl]amino}-5-chloro-2-fluoro-N-1,3-thiazol-2-ylbenzenesulfonamide] | 29 nM | – |
| O=S(=O)(Nc1nccs1)c1cc(Cl)c(NCCCCNC[C@@H]2C[C@H](c3ccccc3)CN2)cc1F [Ex 8-13, 5-chloro-2-fluoro-4-{[4-({[(2S,4R)-4-phenylpyrrolidin-2-yl]-methyl}amino)-butyl]amino}-N-1,3-thiazol-2-yl-benzenesulfonamide] | 16 nM | – |
| O=S(=O)(Nc1nccs1)c1cc(Cl)c(NCCCCNC[C@H]2NCC[C@@H]2c2ccccc2)cc1F [Ex 8-6, 5-chloro-2-fluoro-4-{[4-({[(2S,3R)-3-phenylpyrrolidin-2-yl]-methyl}amino)butyl]amino}-N-1,3-thiazol-2-ylbenzenesulfonamide] | 21 nM | – |
| O=S(=O)(Nc1nccs1)c1cc(Cl)c(NCCCCN2CC3CCCNC3C2)cc1F (stereo not drawn) [Ex 1-13, 5-chloro-2-fluoro-4-{[4-(octahydro-6H-pyrrolo[3,4-b]pyridin-6-yl)butyl]amino}-N-1,3-thiazol-2-ylbenzenesulfonamide] | 16 nM | – |
| O=S(=O)(Nc1nccs1)c1cc(Cl)c(NCCCCCNCC2CCCCN2)cc1F (stereo not drawn) [Ex 9-03, 5-chloro-2-fluoro-4-({5-[(piperidin-2-ylmethyl)-amino]pentyl}amino)-N-1,3-thiazol-2-yl-benzenesulfonamide] | 19 nM | – |
| N#Cc1cc(S(=O)(=O)Nc2ncc(F)s2)c(F)cc1NCCCCN[C@@H]1CCNC1 [Ex 16-40, 5-cyano-2-fluoro-N-(5-fluoro-1,3-thiazol-2-yl)-4-({4-[(3R)-pyrrolidin-3-yl-amino]butyl}amino)benzene-sulfonamide] | 29 nM | – |
| O=S(=O)(Nc1ncc(F)s1)c1ccc(NCCCCNC[C@@H]2CCCN2)c(Cl)c1 [Ex 7-13, 3-chloro-N-(5-fluoro-1,3-thiazol-2-yl)-4-[(4-{[(2S)-pyrrolidin-2-ylmethyl]amino}butyl)amino]benzenesulfonamide] | 16 nM | – |
| NC1CCCN(CCCCNc2cc(F)c(S(=O)(=O)Nc3nccs3)cc2Cl)CC1 (stereo not drawn) [Ex 1-43, 4-{[4-(4-aminoazepan-1-yl)butyl]amino}-5-chloro-2-fluoro-N-1,3-thiazol-2-ylbenzenesulfonamide] | 31 nM | – |
| NC1C2CN(CCCCNc3cc(F)c(S(=O)(=O)Nc4nccs4)cc3Cl)CC12 (stereo not drawn) [Ex 1-42, 4-{[4-(6-amino-3-azabicyclo[3.1.0]hex-3-yl)butyl]amino}-5-chloro-2-fluoro-N-1,3-thiazol-2-ylbenzenesulfonamide] | 80 nM | – |
| O=S(=O)(Nc1nccs1)c1cc(Cl)c(NCCCCNCC2Cc3ccccc3CN2)cc1F (single isomer, unassigned) [Ex 1-19, (S or R)-5-chloro-2-fluoro-4-({4-[(1,2,3,4-tetrahydroisoquinolin-3-ylmethyl)amino]butyl}amino)-N-1,3-thiazol-2-ylbenzenesulfonamide] | 10 nM | – |
